Tested on: Golgi apparatus
Experiment: Immunofluorescence of Golgi and early secretory pathway markers in HeLa cells
Format: cell-based

SMILES: CC1=C(C(=O)OC2CCCCC2)C(c2ccc([N+](=O)[O-])cc2)C2=C(CC(C)(C)CC2=O)N1 (stereo not drawn) [FLI-06, Cyclohexyl 4-(4′-nitrophenyl)-2,7,7-trimethyl-5-oxo-1,4,5,6,7,8-hexahydroquinoline-3-carboxylate]
- Golgi integrity (giantin) (10 μM, 18 h): complete disruption of the Golgi
- time to loss of Golgi-like juxtanuclear βCOP staining (1 ig/ml BFA or 10 iM FLI-06): 30 to 40 min
- distribution of GM130 and TGN46 (10 iM FLI-06 or 1 ig/ml BFA, 18 h): dispersal of the cis-Golgi marker GM130 and of the trans-Golgi network (TGN) marker TGN46
- hyperglycosylation of VSVG-EGFP (4 h at 40° C. with cycloheximide): did not cause a hyperglycosylation
- tubulation of endosomes (Alexa555-transferrin labelled endosomes): did not cause tubulation of endosomes
- fusion of ER and Golgi (prlss-KDEL-mRFP and B4GALT-EGFP markers): did not lead to fusion of ER and Golgi
